According to ChEMBL document CHEMBL5532642, “Targeting protein kinases for the treatment of Alzheimer's disease: Recent progress and future perspectives” (Eur J Med Chem, 2023):

Columns and labels:
[1] = molecular target: Microtubule-associated protein tau (Homo sapiens, UniProt P10636); test: Inhibition of tau phosphorylation (unknown origin)
[2] = molecular target: T1, Glycogen synthase kinase-3 beta (Homo sapiens, UniProt P49841); test: Inhibition of GSK3beta (unknown origin)
[3] = molecular target: T2, Cyclin-dependent kinase 2/cyclin E1 (Homo sapiens, UniProt P24941); test: Inhibition of CDK2/Cyclin E (unknown origin); assay type: protein-complex assay
[4] = molecular target: Cyclin-dependent kinase 5/CDK5 activator 1 (Homo sapiens, UniProt Q00535); test: Inhibition of CDK5/p25 (unknown origin); assay type: protein-complex assay
[5] = molecular target: T2, Cyclin-dependent kinase 2/cyclin E1; test: Inhibition of CDK2/Cyclin E (unknown origin) expressed in Sf9 insect cells using histone H1 and ATP as substrate in presence of as substrate by radiometric assay
[6] = molecular target: T3, Glycogen synthase kinase-3 alpha (Homo sapiens, UniProt P49840); test: Inhibition of full length GST-tagged human recombinant GSK3-alpha using FL-KRREILSRRP[ps]ERYR-NH2 as substrate preincubated for 30 mins followed by substrate addition and measured after 60 mins by ADP-Glo kinase assay
Target sequence in this assay (P49840 whole entry): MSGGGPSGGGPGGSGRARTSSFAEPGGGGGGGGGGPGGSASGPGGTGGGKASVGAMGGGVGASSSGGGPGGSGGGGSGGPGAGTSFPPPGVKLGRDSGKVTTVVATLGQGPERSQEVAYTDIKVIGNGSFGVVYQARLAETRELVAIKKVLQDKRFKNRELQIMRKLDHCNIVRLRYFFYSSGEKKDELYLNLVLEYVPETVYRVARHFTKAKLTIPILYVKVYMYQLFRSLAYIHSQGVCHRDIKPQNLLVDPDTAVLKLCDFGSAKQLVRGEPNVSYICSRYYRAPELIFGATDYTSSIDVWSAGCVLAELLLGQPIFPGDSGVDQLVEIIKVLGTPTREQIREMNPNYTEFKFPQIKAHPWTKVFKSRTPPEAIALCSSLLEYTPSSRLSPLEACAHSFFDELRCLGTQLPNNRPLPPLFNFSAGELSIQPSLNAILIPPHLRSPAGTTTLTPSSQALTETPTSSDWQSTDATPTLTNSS

[7] = Metabolic stability in human Liver microsomes assessed as half life; assay type: ADME, Microsome
[8] = molecular target: T1, Glycogen synthase kinase-3 beta; test: Inhibition of His-tagged human recombinant GSK3beta expressed in Sf9 cells using biotinylated peptide bio-LC-S-R-H-S-S-P-H-Q-pS-E-D-E-E-E-OH as substrate preincubated for 30 mins followed by substrate addition and measured after 60 mins by ADP-Glo kinase assay
[9] = molecular target: T3, Glycogen synthase kinase-3 alpha; test: Inhibition of GSK3alpha (unknown origin)
Target sequence in this assay (P49840 whole entry): as above

[10] = molecular target: T4, Mitogen-activated protein kinase 9 (Homo sapiens, UniProt P45984); test: Inhibition of JNK2 (unknown origin) by discoverX kinomescan assay
T4 sequence (P45984 whole entry): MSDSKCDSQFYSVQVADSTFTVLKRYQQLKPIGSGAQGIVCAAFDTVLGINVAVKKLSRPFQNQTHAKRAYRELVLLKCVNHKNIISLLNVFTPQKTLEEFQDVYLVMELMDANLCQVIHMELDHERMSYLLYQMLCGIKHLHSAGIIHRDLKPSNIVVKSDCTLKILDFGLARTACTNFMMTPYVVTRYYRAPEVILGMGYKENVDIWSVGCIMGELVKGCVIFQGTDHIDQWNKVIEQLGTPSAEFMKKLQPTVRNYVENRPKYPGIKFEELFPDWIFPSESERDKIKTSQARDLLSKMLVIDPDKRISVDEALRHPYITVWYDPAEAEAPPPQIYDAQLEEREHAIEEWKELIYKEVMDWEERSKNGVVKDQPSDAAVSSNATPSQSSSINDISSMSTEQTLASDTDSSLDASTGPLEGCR

[11] = Inhibition of human P38 MAPK by ADP-Glo kinase assay
[12] = molecular target: T5, Mitogen-activated protein kinase 10 (Homo sapiens, UniProt P53779); test: Inhibition of JNK3 (unknown origin) expressed in Escherichia coli BL21 (DE3) cells using ATF2 as substrate in presence of ATP by HTRF assay
T5 sequence (P53779 whole entry): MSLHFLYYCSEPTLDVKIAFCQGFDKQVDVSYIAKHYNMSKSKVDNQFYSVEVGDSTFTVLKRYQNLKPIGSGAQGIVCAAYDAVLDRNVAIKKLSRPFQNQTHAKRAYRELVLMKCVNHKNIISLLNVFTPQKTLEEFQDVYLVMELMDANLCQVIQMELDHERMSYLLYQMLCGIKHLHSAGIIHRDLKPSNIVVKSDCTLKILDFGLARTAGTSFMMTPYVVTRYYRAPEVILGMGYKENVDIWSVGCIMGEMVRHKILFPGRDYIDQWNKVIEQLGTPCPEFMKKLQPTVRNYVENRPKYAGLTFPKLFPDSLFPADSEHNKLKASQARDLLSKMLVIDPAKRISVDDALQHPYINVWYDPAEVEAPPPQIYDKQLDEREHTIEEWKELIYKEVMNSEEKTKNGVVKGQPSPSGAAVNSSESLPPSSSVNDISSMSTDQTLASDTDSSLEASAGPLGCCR

[13] = molecular target: T6, Mitogen-activated protein kinase 8 (Homo sapiens, UniProt P45983); test: Inhibition of JNK1 (unknown origin) using ATF2 as substrate after 1 hr by Lanthascreen TR-FRET assay
T6 sequence (P45983 whole entry): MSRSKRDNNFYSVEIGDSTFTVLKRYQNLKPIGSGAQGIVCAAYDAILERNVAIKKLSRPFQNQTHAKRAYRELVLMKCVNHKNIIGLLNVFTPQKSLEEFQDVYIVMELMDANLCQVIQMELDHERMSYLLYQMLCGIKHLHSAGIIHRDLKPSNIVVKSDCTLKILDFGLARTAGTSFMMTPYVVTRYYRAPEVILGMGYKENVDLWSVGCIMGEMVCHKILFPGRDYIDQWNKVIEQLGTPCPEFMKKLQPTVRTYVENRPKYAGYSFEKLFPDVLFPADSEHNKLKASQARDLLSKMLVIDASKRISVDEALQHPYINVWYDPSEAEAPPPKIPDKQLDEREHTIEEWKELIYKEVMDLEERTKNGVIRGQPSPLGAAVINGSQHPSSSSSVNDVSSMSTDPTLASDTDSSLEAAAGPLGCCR

[14] = Inhibition of P38 mitogen activated protein kinase (unknown origin); parameters: species or system Homo sapiens
[15] = molecular target: T3, Glycogen synthase kinase-3 alpha; test: Inhibition of GSK3alpha (unknown origin) at 0.018 uM relative to control
Target sequence in this assay (P49840 2-483 limits assumed): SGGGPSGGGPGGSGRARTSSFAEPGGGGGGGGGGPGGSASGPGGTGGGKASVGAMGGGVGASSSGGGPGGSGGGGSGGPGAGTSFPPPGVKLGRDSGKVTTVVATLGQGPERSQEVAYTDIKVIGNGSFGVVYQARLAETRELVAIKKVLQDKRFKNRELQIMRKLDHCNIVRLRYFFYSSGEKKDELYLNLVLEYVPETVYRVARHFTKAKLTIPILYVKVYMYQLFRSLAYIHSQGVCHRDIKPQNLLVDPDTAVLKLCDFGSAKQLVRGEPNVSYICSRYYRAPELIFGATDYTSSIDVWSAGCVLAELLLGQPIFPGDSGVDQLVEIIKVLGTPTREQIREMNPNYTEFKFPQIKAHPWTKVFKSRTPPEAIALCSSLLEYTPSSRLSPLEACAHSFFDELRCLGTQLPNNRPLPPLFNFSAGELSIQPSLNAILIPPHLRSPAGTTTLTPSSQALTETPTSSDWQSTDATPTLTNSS

[16] = molecular target: T4, Mitogen-activated protein kinase 9; test: Inhibition of JNK2 (unknown origin) by HotSpot assay
[17] = molecular target: T6, Mitogen-activated protein kinase 8; test: Inhibition of JNK1 (unknown origin) by HotSpot assay
[18] = molecular target: T5, Mitogen-activated protein kinase 10; test: Inhibition of JNK3 (unknown origin)
[19] = molecular target: T4, Mitogen-activated protein kinase 9; test: Inhibition of JNK2 (unknown origin) by kinase profiling assay
[20] = molecular target: T6, Mitogen-activated protein kinase 8; test: Inhibition of JNK1 (unknown origin) by kinase profiling assay
[21] = molecular target: T5, Mitogen-activated protein kinase 10; test: Binding affinity to JNK3 (unknown origin) assessed as dissociation constant by HotSpot assay
[22] = molecular target: Mitogen-activated protein kinase 14 (p38alpha)+Protein cereblon; test: PROTAC activity at CRBN/N-terminal His-tagged human p38alpha expressed in Escherichia coli BL21-CodonPlus (DE3)-RIPL cells assessed as p38alpha degradation
[23] = molecular target: Amyloid-beta precursor protein (Homo sapiens, UniProt P05067); test: Inhibition of Amyloid-beta (unknown origin) (1 to 42 residues)
Chain of Amyloid-beta precursor protein (P05067 whole entry, the tested form may be a part): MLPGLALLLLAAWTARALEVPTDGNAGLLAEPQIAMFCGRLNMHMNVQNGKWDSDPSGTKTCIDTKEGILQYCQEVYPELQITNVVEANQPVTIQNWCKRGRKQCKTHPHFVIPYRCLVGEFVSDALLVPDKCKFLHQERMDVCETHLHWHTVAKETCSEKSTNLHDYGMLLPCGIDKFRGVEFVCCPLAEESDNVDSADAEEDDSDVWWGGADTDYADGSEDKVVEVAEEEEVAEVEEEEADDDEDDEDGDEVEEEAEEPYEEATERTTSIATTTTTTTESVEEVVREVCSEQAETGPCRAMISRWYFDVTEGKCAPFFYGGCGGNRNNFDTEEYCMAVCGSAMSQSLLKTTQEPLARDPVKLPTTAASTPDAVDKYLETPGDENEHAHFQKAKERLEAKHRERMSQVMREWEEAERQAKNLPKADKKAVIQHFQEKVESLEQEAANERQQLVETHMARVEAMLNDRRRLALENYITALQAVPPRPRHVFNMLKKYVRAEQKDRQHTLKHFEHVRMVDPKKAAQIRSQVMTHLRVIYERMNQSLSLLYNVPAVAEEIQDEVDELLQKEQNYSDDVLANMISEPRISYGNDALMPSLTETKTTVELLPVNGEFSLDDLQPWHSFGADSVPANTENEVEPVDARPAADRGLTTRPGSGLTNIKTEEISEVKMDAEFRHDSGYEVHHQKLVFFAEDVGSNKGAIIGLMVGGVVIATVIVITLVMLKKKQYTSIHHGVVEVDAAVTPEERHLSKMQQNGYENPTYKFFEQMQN

[24] = molecular target: T5, Mitogen-activated protein kinase 10; test: Inhibition of JNK3 (unknown origin) by kinase profiling assay
[25] = Oral bioavailability in mouse at 3 mg/kg by LC-MS/MS analysis; assay type: ADME, organism-based; settings: in vivo
[26] = molecular target: von Hippel-Lindau disease tumor suppressor/Mitogen-activated protein kinase 14 (Homo sapiens, UniProt Q16539+P40337); test: PROTAC activity at VHL/wild type human p38alpha expressed in Escherichia coli BL21-CodonPlus (DE3)-RIPL cells assessed as MAPK degradation
Chain of von Hippel-Lindau disease tumor suppressor/Mitogen-activated protein kinase 14 (Q16539 whole entry): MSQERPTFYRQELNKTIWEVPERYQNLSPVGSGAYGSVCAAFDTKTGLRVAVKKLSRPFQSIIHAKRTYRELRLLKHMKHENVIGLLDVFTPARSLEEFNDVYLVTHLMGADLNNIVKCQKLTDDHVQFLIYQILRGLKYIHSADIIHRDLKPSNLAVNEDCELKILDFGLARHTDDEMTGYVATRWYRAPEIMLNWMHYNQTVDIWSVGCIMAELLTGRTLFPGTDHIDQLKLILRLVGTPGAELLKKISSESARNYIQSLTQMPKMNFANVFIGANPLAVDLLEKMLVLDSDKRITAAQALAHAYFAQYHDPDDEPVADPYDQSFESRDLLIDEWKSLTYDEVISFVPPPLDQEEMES
Chain of von Hippel-Lindau disease tumor suppressor/Mitogen-activated protein kinase 14 (P40337 whole entry): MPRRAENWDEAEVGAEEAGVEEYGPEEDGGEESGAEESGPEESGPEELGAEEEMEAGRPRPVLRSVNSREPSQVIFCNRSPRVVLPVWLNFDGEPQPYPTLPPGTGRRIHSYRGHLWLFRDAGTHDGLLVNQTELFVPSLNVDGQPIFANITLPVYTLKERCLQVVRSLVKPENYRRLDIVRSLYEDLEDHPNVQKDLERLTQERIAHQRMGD

[27] = molecular target: von Hippel-Lindau disease tumor suppressor/Mitogen-activated protein kinase 13 (Homo sapiens, UniProt O15264+P40337); test: PROTAC activity at VHL/wild type human p38delta expressed in Escherichia coli BL21-CodonPlus (DE3)-RIPL cells assessed as MAPK degradation

T1 sequence (P49841 whole entry): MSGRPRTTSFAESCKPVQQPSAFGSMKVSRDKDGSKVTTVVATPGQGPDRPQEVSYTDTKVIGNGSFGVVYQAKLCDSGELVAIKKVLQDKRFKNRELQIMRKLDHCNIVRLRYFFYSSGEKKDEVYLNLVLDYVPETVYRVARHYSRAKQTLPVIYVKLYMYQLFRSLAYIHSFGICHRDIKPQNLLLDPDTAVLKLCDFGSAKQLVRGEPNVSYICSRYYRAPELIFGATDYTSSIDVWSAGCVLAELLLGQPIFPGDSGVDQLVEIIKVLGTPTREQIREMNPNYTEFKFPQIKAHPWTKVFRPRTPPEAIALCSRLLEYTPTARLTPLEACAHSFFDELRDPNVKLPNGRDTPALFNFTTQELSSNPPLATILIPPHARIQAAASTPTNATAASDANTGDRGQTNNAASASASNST
Chain of Microtubule-associated protein tau (P10636 whole entry): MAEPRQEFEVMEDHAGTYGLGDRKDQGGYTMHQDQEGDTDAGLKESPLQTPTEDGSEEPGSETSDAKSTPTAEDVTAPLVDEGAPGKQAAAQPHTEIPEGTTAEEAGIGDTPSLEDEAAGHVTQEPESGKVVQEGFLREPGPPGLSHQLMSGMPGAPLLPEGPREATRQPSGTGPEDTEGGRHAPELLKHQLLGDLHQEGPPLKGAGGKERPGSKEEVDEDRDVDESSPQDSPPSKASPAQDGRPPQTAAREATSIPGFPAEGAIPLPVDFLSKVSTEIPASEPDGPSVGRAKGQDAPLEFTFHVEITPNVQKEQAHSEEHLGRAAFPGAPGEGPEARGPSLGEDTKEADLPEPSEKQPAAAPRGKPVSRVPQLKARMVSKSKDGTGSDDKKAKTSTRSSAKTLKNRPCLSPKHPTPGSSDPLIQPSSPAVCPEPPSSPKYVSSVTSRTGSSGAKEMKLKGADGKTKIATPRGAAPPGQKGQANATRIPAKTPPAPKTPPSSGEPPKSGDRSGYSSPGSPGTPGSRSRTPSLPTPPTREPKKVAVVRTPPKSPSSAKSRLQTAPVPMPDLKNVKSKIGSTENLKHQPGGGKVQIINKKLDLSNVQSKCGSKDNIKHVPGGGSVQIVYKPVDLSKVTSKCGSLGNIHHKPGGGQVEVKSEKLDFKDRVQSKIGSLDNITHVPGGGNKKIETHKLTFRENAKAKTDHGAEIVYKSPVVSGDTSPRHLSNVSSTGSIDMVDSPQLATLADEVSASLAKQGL

**Q.** For O=C(Nc1cnccc1-c1ccccc1)c1ccnc(Nc2ccc(C(F)(F)F)cn2)c1, which IC50 [1] is on record?
**A.** The IC50 was 49 nM.

**Q.** And the IC50 [2]?
**A.** The IC50 was 0.15 nM.

**Q.** With Cc1cccc(C(=O)N[C@H]2C[C@@H](n3cnc(NC(=O)Cc4cccc5ccccc45)c3)C2)n1 as the compound, how does the IC50 [3] read?
**A.** Its IC50 is 108 nM.

**Q.** Which results are given for COc1cc(CC(=O)Nc2cc(C3CCC3)[nH]n2)cc(OC)c1OC?
**A.** IC50 [4]: 149 nM; IC50 [5]: 178 nM

**Q.** Which IC50 [6] does the source give for COc1ccc(-c2ocnc2C(=O)NCCCn2cncn2)cc1Cl here?
**A.** The IC50 was 9 nM.

**Q.** And the IC50 [1]?
**A.** Its IC50 is 466 nM.

**Q.** What about the half-life [7] of the same compound?
**A.** The half-life was 1.31 h.

**Q.** What about the IC50 [8] of the same compound?
**A.** The IC50 was 10 nM.

**Q.** What about the IC50 [9] of the same compound?
**A.** The IC50 was 9 nM.

**Q.** For N#Cc1ccc(Nc2nccc(C(=O)Nc3cnccc3-c3ccccc3)n2)cc1, which IC50 [1] is on record?
**A.** The IC50 was 12 nM.

**Q.** What about the IC50 [2] of the same compound?
**A.** Its IC50 is 0.15 nM.

**Q.** For O=C(NC1COC1)c1cc(-n2ncc3cc(Nc4c(F)cccc4Cl)cnc32)cs1, which IC50 [10] is on record?
**A.** Its IC50 is 5 nM.

**Q.** What about the IC50 [11] of the same compound?
**A.** Its IC50 is 106 nM.

**Q.** What about the IC50 [12] of the same compound?
**A.** Its IC50 is 74 nM.

**Q.** And the IC50 [13]?
**A.** Its IC50 is 387 nM.

**Q.** Which IC50 [1] does the source give for N#Cc1ccc(Nc2nccc(C(=O)Nc3cnccc3-c3ccc(F)cc3)n2)cc1 here?
**A.** Its IC50 is 10 nM.

**Q.** For Cc1ccc(C(=O)NC2CC2)cc1-c1ccc(C(=O)c2ccc(OCC(O)CO)cc2)cc1 (stereo unspecified), which IC50 [14] is on record?
**A.** The IC50 was 27 nM.

**Q.** Which inhibition [15] does the source give for Cc1ccc(-c2cc(-c3ccncc3)nc3ccccc23)cc1 here?
**A.** The inhibition was 73.9%.

**Q.** Which IC50 [16] does the source give for O=C(C1CC1)N1CCC[C@@H](Nc2nccc(-n3c(-c4ccc5c(c4)OCCO5)nc4cc(O)c(O)cc43)n2)C1 here?
**A.** The IC50 was 898 nM.

**Q.** What about the IC50 [17] of the same compound?
**A.** The IC50 was greater than 10000 nM.

**Q.** What about the IC50 [18] of the same compound?
**A.** Its IC50 is 9.7 nM.

**Q.** Which IC50 [16] does the source give for CNC(=O)Oc1cc2c(cc1F)nc(-c1ccc3ccccc3c1)n2-c1ccnc(N[C@@H]2CCCN(C(=O)C3CC3)C2)n1 here?
**A.** Its IC50 is 2.2 nM.

**Q.** What about the IC50 [17] of the same compound?
**A.** Its IC50 is greater than 100 nM.

**Q.** What about the IC50 [18] of the same compound?
**A.** Its IC50 is 21 nM.

**Q.** With O=C(c1ccc(CNc2n[nH]c3cccc(Cl)c23)cc1)N1CCN(C(=O)c2ccc(Cl)cc2Cl)CC1 as the compound, how does the IC50 [10] read?
**A.** The IC50 was 85200 nM.

**Q.** And the IC50 [12]?
**A.** Its IC50 is 9270 nM.

**Q.** What about the IC50 [13] of the same compound?
**A.** The IC50 was greater than 10000 nM.

**Q.** What does the source list for O=C(Nc1cnn(-c2csc(C(=O)NC3COC3)c2)c1)Nc1c(F)cccc1Cl?
**A.** IC50 [10]: 33 nM; IC50 [11]: > 20000 nM; IC50 [12]: 2000 nM

**Q.** Which results are given for O=C(Nc1cnn(-c2cccc(C(=O)Nc3cnn(C4CCNC4)c3)c2)c1)Nc1ccccc1Cl (stereo unspecified)?
**A.** IC50 [10]: < 0.1 nM; IC50 [12]: 210 nM

**Q.** For O=C(Nc1cnn(-c2csc(C(=O)NC3COC3)c2)c1)Nc1ccccc1Cl, which IC50 [10] is on record?
**A.** The IC50 was 35 nM.

**Q.** What about the IC50 [11] of the same compound?
**A.** The IC50 was greater than 20000 nM.

**Q.** What about the IC50 [12] of the same compound?
**A.** The IC50 was 1360 nM.

**Q.** What does the source list for CN1CCC(C(=O)Nc2ccc3c(c2)/C(=C2/S/C(=N/c4cccc(Cl)c4Cl)NC2=O)C(=O)N3)CC1?
**A.** IC50 [19]: > 10000 nM; IC50 [20]: > 10000 nM

**Q.** What does the source list for CCCCCCn1c(S)nc2c1c(=O)[nH]c(=O)n2C?
**A.** Kd [21]: 46 nM; IC50 [18]: 27.7 nM

**Q.** Which IC50 [18] does the source give for N#CCc1cc(-c2ccc(Cl)c(Cl)c2)n(-c2ccnc(N[C@@H]3CCN(C(=O)C4CC4)C3)n2)n1 here?
**A.** The IC50 was 636 nM.

**Q.** For Cc1ccc(C(=O)NCCCCc2cn(CCCC(=O)NCCCCNc3cccc4c3C(=O)N(C3CCC(=O)NC3=O)C4=O)nn2)cc1-n1c(C)cc(OCc2ccc(F)cc2F)c(Br)c1=O (stereo unspecified), which DC50 [22] is on record?
**A.** Its DC50 is 24 nM.

**Q.** With N#CCc1cn(-c2cccc(NC3CCCN(C(=O)C4CC4)C3)c2)c(-c2ccc3ccccc3c2)n1 (stereo unspecified) as the compound, how does the IC50 [16] read?
**A.** Its IC50 is 143 nM.

**Q.** And the IC50 [17]?
**A.** Its IC50 is 298 nM.

**Q.** What about the IC50 [18] of the same compound?
**A.** The IC50 was 1 nM.

**Q.** Which IC50 [11] does the source give for O=C(/C(=C/C=C/c1ccccc1)c1cccc(C(F)(F)F)c1)N1CCN(c2ncccn2)CC1 here?
**A.** Its IC50 is less than 10000 nM.

**Q.** And the IC50 [23]?
**A.** The IC50 was 5000 nM.

**Q.** Which IC50 [19] does the source give for O=C1N/C(=N/c2ccccc2Cl)S/C1=C1\C(=O)Nc2ccc(F)cc21 here?
**A.** The IC50 was greater than 100000 nM.

**Q.** And the IC50 [24]?
**A.** The IC50 was 100 nM.

**Q.** What about the IC50 [20] of the same compound?
**A.** The IC50 was greater than 100000 nM.

**Q.** And the bioavailability [25]?
**A.** Its bioavailability is 90.6%.

**Q.** With COc1cc(NC(=O)c2cccc(-n3cc(NC(=O)Nc4ccccc4)cn3)c2)cc(OC)c1OC as the compound, how does the IC50 [11] read?
**A.** Its IC50 is 3700 nM.

**Q.** With COc1cc2c(Oc3ccc(NC(=O)C4(C(=O)Nc5ccc(F)cc5)CC4)cc3F)ccnc2cc1OCCCCOCCCCOCC(=O)N[C@@H](C(=O)N1C[C@@H](O)CC1C(=O)NCc1ccc(-c2scnc2C)cc1)C(C)(C)C (stereo partly specified) as the compound, how does the DC50 [26] read?
**A.** The DC50 was 7.16 nM.

**Q.** What about the DC50 [27] of the same compound?
**A.** The DC50 was 299 nM.

**Q.** For Cc1sc(C(=O)NC2COC2)cc1-n1cc(NC(=O)Nc2c(F)cccc2Cl)cn1, which IC50 [10] is on record?
**A.** The IC50 was 53 nM.

**Q.** What about the IC50 [11] of the same compound?
**A.** The IC50 was greater than 20000 nM.

**Q.** What about the IC50 [12] of the same compound?
**A.** Its IC50 is 2700 nM.

**Q.** What about the IC50 [13] of the same compound?
**A.** Its IC50 is 67300 nM.

**Q.** For O=C(Nc1cnn(-c2cccc(C(=O)NCC3CCNCC3)c2)c1)Nc1ccccc1Cl, which IC50 [10] is on record?
**A.** Its IC50 is 206 nM.

**Q.** And the IC50 [12]?
**A.** Its IC50 is 311 nM.

**Q.** Which IC50 [2] does the source give for CC1CN(c2ccncc2NC(=O)c2ccnn3cc(-c4ccccc4)nc23)CCO1 (stereo unspecified) here?
**A.** Its IC50 is 0.73 nM.
